Reference: the Kinase Knowledgebase extract (Sharma et al. 2016)

Molecular target: MAPK14 (UniProt Q16539)
Assay: Inhibition of MAPK14 Kinase Activity

Chain of MAPK14 (Q16539 whole entry, looked up): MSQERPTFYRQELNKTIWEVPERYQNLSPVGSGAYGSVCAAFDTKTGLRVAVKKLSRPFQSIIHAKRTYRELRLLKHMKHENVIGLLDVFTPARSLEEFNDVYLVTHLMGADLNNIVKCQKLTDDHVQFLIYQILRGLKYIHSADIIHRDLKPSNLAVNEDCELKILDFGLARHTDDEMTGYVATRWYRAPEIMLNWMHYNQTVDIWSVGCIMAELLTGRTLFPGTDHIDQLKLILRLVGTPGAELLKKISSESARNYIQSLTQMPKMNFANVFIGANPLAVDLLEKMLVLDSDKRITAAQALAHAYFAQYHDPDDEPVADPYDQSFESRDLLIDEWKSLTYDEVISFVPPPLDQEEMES

Structure (SMILES)	IC50 [µM]
Cc1ccc(F)cc1CNC(=O)c1ccc(-c2cc(C(=O)NC3CC3)cc(F)c2C)nc1	< 10
Cc1ccc(CNC(=O)c2ccc(-c3cc(C(=O)NC4CC4)cc(F)c3C)nc2)cc1	< 10
COCCNC(=O)c1ccc(-c2cc(C(=O)NC3CC3)cc(F)c2C)nc1	< 10
Cc1csc(CNC(=O)c2ccc(-c3cc(C(=O)NC4CC4)cc(F)c3C)nc2)n1	< 10
Cc1c(F)cc(C(=O)NC2CC2)cc1-c1ccc(C(=O)N2CCCC(C)C2)cn1 (centres undefined)	< 10
Cc1c(F)cc(C(=O)NC2CC2)cc1-c1ccc(C(=O)NCc2ccccc2F)cn1	< 10
Cc1ccc(NC(=O)c2ccoc2)cc1-c1ccc(C(=O)Nc2ccccc2CN2CCN(C)CC2)cn1	< 10
Cc1ccc(C(=O)NCC2CC2)cc1-c1ccc(C(=O)NCC2CC2)cn1	< 10
Cc1ccc(NC(=O)c2ccoc2)cc1-c1ccc(C(=O)NCc2cccc(NS(C)(=O)=O)c2)cn1	< 10
Cc1c(F)cc(C(=O)NC2CC2)cc1-c1ccc(C(=O)NCc2c(F)ccc(F)c2Cl)cn1	< 10
Cc1ccccc1CNC(=O)c1ccc(-c2cc(C(=O)NC3CC3)cc(F)c2C)nc1	< 10
COc1cccc(NC(=O)c2ccc(-c3cc(C(=O)NC4CC4)cc(F)c3C)nc2)c1	< 10
COc1cccc(CNC(=O)c2ccc(-c3cc(C(=O)Nc4nncs4)ccc3C)nc2)c1	< 10
Cc1c(F)cc(C(=O)NC2CC2)cc1-c1ccc(C(=O)NC(C)C2CC2)cn1 (centres undefined)	< 10
Cc1c(F)cc(C(=O)NC2CC2)cc1-c1ccc(C(=O)NCCC(F)(F)F)cn1	< 10
COc1ccc(NC(=O)c2ccc(-c3cc(C(=O)NCC4CC4)ccc3C)nc2)cc1	< 10
Cc1ccc(NC(=O)c2ccoc2)cc1-c1ccc(C(=O)NCC2CC2)cn1	< 10
CCC1CCCCN1C(=O)c1ccc(-c2cc(C(=O)NC3CC3)cc(F)c2C)nc1 (centres undefined)	< 10
Cc1c(F)cc(C(=O)NC2CC2)cc1-c1ccc(C(=O)NCc2nccs2)cn1	< 10
Cc1c(F)cc(C(=O)NC2CC2)cc1-c1ccc(C(=O)NCc2cccc(F)c2F)cn1	< 10
Cc1c(F)cc(C(=O)NC2CC2)cc1-c1ccc(C(=O)NC2CCC2)cn1	< 10
Cc1c(F)cc(C(=O)NC2CC2)cc1-c1ccc(C(=O)NCc2cc(F)ccc2F)cn1	< 10
Cc1c(F)cc(C(=O)NC2CC2)cc1-c1ccc(C(=O)NCCc2nccs2)cn1	< 10
Cc1c(F)cc(C(=O)NC2CC2)cc1-c1ccc(C(=O)NC2CCCC2)cn1	< 10
Cc1c(F)cc(C(=O)NC2CC2)cc1-c1ccc(C(=O)NCC2CCC2)cn1	< 10

Structure (SMILES)	IC50 [µM]
Cc1ccc(CNC(=O)c2ccc(-c3cc(C(=O)NC4CC4)cc(F)c3C)nc2)c(F)c1F	< 10
COc1ccc(NC(=O)c2ccc(-c3cc(C(=O)Nc4nncs4)ccc3C)nc2)cc1	< 10
CCC1CC1CNC(=O)c1ccc(-c2cc(C(=O)NC3CC3)cc(F)c2C)nc1 (centres undefined)	< 10
Cc1c(F)cc(C(=O)NC2CC2)cc1-c1ccc(C(=O)NCCc2ccccc2)cn1	< 10
C/C=C/C(C)(C)NC(=O)c1ccc(-c2cc(C(=O)NC3CC3)cc(F)c2C)nc1	< 10
Cc1c(F)cc(C(=O)NC2CC2)cc1-c1ccc(C(=O)NCCC(C)(C)C)cn1	< 10
CCCC(O)C(C)NC(=O)c1ccc(-c2cc(C(=O)NC3CC3)cc(F)c2C)nc1 (centres undefined)	< 10
COc1cccc(CNC(=O)c2ccc(-c3cc(C(=O)NCC4CC4)ccc3C)nc2)c1	< 10
Cc1c(F)cc(C(=O)NC2CC2)cc1-c1ccc(C(=O)NCCC(C)C)cn1	< 10
CCN(C(=O)c1ccc(-c2cc(C(=O)NC3CC3)cc(F)c2C)nc1)C1CCCCC1	< 10
COC(C)(C)CNC(=O)c1ccc(-c2cc(C(=O)NC3CC3)cc(F)c2C)nc1	< 10
Cc1c(F)cc(C(=O)NC2CC2)cc1-c1ccc(C(=O)N(C)CC(C)C)cn1	< 10
Cc1c(F)cc(C(=O)NC2CC2)cc1-c1ccc(C(=O)NCc2ccc(C(F)(F)F)cc2)cn1	< 10
Cc1ccc(NC(=O)c2ccsc2)cc1-c1ccc(C(=O)Nc2ccccc2CN2CCN(C)CC2)cn1	< 10
CCC1(C)CCCCN1C(=O)c1ccc(-c2cc(C(=O)NC3CC3)cc(F)c2C)nc1 (centres undefined)	< 10
Cc1c(F)cc(C(=O)NC2CC2)cc1-c1ccc(C(=O)NCc2c(F)ccc(Cl)c2F)cn1	< 10
Cc1ccc(NC(=O)c2ccsc2)cc1-c1ccc(C(=O)NCc2cccc(NS(C)(=O)=O)c2)cn1	< 10
Cc1ccc(C(=O)Nc2nncs2)cc1-c1ccc(C(=O)NCC2CC2)cn1	< 10
COc1ccc(NC(=O)c2ccc(-c3cc(C(=O)Nc4nccs4)ccc3C)nc2)cc1	< 10
Cc1c(F)cc(C(=O)NC2CC2)cc1-c1ccc(C(=O)NCC2CCCC2)cn1	< 10
CCCC1CCCCN1C(=O)c1ccc(-c2cc(C(=O)NC3CC3)cc(F)c2C)nc1 (centres undefined)	< 10
Cc1ccc(C(=O)NC2CC2)cc1-c1ccc(C(=O)NCc2cccc(NS(C)(=O)=O)c2)cn1	< 10
Cc1cccc(CNC(=O)c2ccc(-c3cc(C(=O)NC4CC4)cc(F)c3C)nc2)c1	< 10
CCCC(C)NC(=O)c1ccc(-c2cc(C(=O)NC3CC3)cc(F)c2C)nc1 (centres undefined)	< 10
